From patent US20240277738A1, “GAMETOCYTOCIDAL COMPOUND” (Eberhard Karls Universität Tübingen Medizinische Fakultãt, priority 2021, published 2024)
Counter-ions that a name gives are not always drawn. Like-named read-outs stand apart in the source and are kept apart here.

Columns and labels:
[1] = system: Plasmodium falciparum strain 3D7; assay: Growth inhibition assay with asexual Plasmodium falciparum (HRP2 ELISA); format: cell-based; settings: for Fold differences, 3 day-assays: IC50 3D7 versus A1-H.1, 3 days; for Fold differences, 6 day-assays: IC50 3D7 versus A1-H.1, 6 days
[2] = system: mature (stage IV-V) Plasmodium falciparum gametocytes (NF54); assay: In vitro activity against mature gametocytes (ATP production, BacTiterGlo); format: cell-based; settings: 48 h
[3] = system: Plasmodium falciparum strain 3D7; assay: Apicoplast as target: growth inhibition with and without IPP supplementation; format: cell-based; settings: 3D7, 6 days
[4] = system: Plasmodium falciparum Dd2 (multidrug-resistant); assay: Growth inhibition assay, resistant strain Dd2; format: cell-based; settings: read-out: IC50, Dd2
[5] = system: Plasmodium falciparum strain 3D7; assay: Ionophoric activity assay: growth inhibition with KCl or MgCl2 supplementation; format: cell-based
[6] = system: Plasmodium falciparum 3D7 and Dd2 asexual stages; assay: Thin blood smear microscopy (Giemsa); settings: 1 nM for 6 h
Description: Then, thin blood smears were prepared, fixed in 100% methanol for 10 seconds, and stained with Giemsa (Merck) solution (5%) for 20 minutes. The slides were washed and observed under a Leica DMBL microscope, and pictures were taken using a ProgRes C10 camera and software (Jenoptik), at 100× magnification.

Mycobacterium bovis = settings: cited from earlier work
[7] = system: Plasmodium falciparum 7G8 (chloroquine resistant); assay: Growth inhibition assay, resistant strain 7G8; format: cell-based; settings: read-out: IC50, 7G8
HepG2 cells = assay: Cytotoxicity, neutral red assay; format: cell-based, human; settings: for IC50: read-out: IC50 (μM) in HepG2 cells; for SI 3D7: selectivity index HepG2 versus P. falciparum 3D7; for SI A1-H.1: selectivity index HepG2 versus P. knowlesi A1-H.1
[8] = system: Plasmodium falciparum K1 (multidrug-resistant); assay: Growth inhibition assay, resistant strain K1; format: cell-based; settings: read-out: IC50, K1
[9] = Plasmodium falciparum, 3D7, 72 h, read-out: IC50, 3 day-assays, 3D7
[10] = Plasmodium falciparum, 3D7, 144 h, read-out: IC50, 6 day-assays, 3D7
[11] = Plasmodium falciparum, NF54, stage IV and V gametocytes
[12] = Plasmodium falciparum, 72 h, P. falciparum 3D7, 3 days of incubation, read-out: IC50, 3 day-assays, 3D7
[13] = Plasmodium falciparum, 144 h, P. falciparum 3D7, 6 days of incubation, read-out: IC50, 6 day-assays, 3D7

With CN(C)[C@@H]1C(O)=C(C(N)=O)C(=O)[C@@]2(O)C(O)=C3C(=O)c4c(O)c(NC(=O)CN5CCCC5)cc(F)c4C[C@H]3C[C@@H]12 [Eravacycline] the “Fold differences, 3 day-assays” value [1] was 1.08, the “Fold differences, 6 day-assays” value [1] was 0.4 and the IC50 [1, 9] was 2.51 ± 0.55 µM. The IC50 [1, 10] was 0.0051 µM.
For CC(C)[C@@H](N)C(=O)O[C@H](C)[C@@H]1C/C=C\CC[C@H](O)C(C)(C)[C@@H]2CC[C@@H](C)[C@@]3(O2)O[B-]24O[C@@H](C(=O)O1)[C@]1(O[C@@H](CC[C@H]1C)C(C)(C)[C@H](O)CCC[C@@H]1C[C@H](OC(=O)[C@@H]3O2)[C@@H](C)O1)O4.[H+] [Boromycin], the IC50 ([1]; 3D7, 3 days of incubation, comparator for resistant strains, read-out: IC50, 3D7 (Table 4)) was 0.0009 ± 0.0001 µM, the “Fold differences, 3 day-assays” value [1] was 0.15 and the “Fold differences, 6 day-assays” value [1] was 0.29. For the same molecule, the IC50 ([1]; P. falciparum 3D7, 3 days of incubation, read-out: IC50, 3 day-assays, 3D7) was 0.0009 ± 0.0001 µM, the IC50 ([2]; stage IV and V gametocytes) was 0.0085 ± 0.0036 µM and the IC50 ([3]; supplemented with IPP, read-out: IC50, IPP-supplemented) was 0.0014 µM. The IC50 ([3]; without IPP, read-out: IC50, control without IPP) was 0.0009 µM, the IC50 ([4]; Dd2, 3 days of incubation) was 0.0006 ± 0.0004 µM and the IC50 ([5]; 3D7, 3 days, KCl 220 μg/ml, read-out: IC50, KCl supplemented) was 2.1 ± 0.2 nM. The IC50 ([5]; 3D7, 3 days, MgCl2 220 μg/ml, read-out: IC50, MgCl2 supplemented) was 0.2 nM, the IC50 ([5]; 3D7, 3 days, no supplementation, read-out: IC50 (in nM) control) was 0.7 ± 0.1 nM and the “increase of IC50 by supplementation of KCl” value ([5]; KCl at 220 μg/mL versus control) was 3 fold. The “parasite morphology, strain 3D7” value ([6]; 3D7) was “pyknotic appearance”, the “parasite morphology, strain Dd2” value ([6]; Dd2) was “pyknotic appearance” and the “boromycin activity with external KCl” value (Mycobacterium bovis; KCl 20 mg/mL) was 10%. The “boromycin activity without added KCl” value (Mycobacterium bovis; before addition of KCl) was 50%, the IC50 ([7]; 7G8, 3 days of incubation) was 0.0004 ± 7e-05 µM and the IC50 (HepG2 cells; HepG2, 24 hours drug incubation, neutral red) was 1250 ± 230 µM. For the same molecule, the “selectivity index (SI)” value (HepG2 cells; HepG2 versus Plasmodium) was “higher than 200,000”, the “SI 3D7” value (HepG2 cells) was 1,388,000 and the “SI A1-H.1” value (HepG2 cells) was 211,864. It also gave an IC50 ([8]; K1, 3 days of incubation) of 0.0007 ± 0.0001 µM.
For CN(C)c1ccc2nc3ccc(=[N+](C)C)cc-3sc2c1 [methylene blue, Methylene Blue], the IC50 [2, 11] was 0.284 ± 0.035 µM.
In the case of C=C1c2c(Cl)ccc(O)c2C(=O)C2=C(O)[C@]3(O)C(=O)C(C(N)=O)=C(O)[C@@H](N(C)C)[C@@H]3[C@@H](O)[C@H]12 [Meclocycline], the “Fold differences, 6 day-assays” value [1] is reported as 0.19, the IC50 [1, 9] is reported as over 18 µM and the IC50 [1, 10] is reported as 0.292 ± 0.041 µM.
CC[C@H](C)[C@H](NC(=O)[C@H]([C@@H](C)CC)N(C)C(C)=O)C(=O)N[C@H](C(=O)N[C@@H](CC(C)C)C(=O)[C@@]1(C)CO1)[C@@H](C)O [epoxomicin] gave an IC50 [2, 11] of 0.0152 ± 0.0034 µM.
For CO[C@H]1C[C@H](O[C@H]2[C@H](C)[C@@H](O[C@@H]3O[C@H](C)C[C@H](N(C)C)[C@H]3OC(C)=O)[C@@H](C)C[C@@]3(CO3)C(=O)[C@H](C)[C@@H](OC(C)=O)[C@@H](C)[C@@H](C)OC(=O)[C@@H]2C)O[C@@H](C)[C@@H]1OC(C)=O [Troleandomycin], the IC50 [1, 12] was over 18 µM and the IC50 [1, 13] was over 18 µM.
In the case of C[C@H]1c2cccc(O)c2C(=O)C2=C(O)[C@]3(O)C(=O)C(C(N)=O)=C(O)[C@@H](N(C)C)[C@@H]3[C@@H](O)[C@@H]21 [Doxycycline, Doxycycline Hyclate], the “Fold differences, 3 day-assays” value [1] is reported as 5.1, the “Fold differences, 6 day-assays” value [1] is reported as 0.58 and the IC50 [1, 12] is reported as 9.58 ± 2.76 µM. It also gave an IC50 [1, 13] of 0.386 ± 0.292 µM.
In the case of CN(C)[C@@H]1C(O)=C(C(N)=O)C(=O)[C@@]2(O)C(O)=C3C(=O)c4c(O)ccc(Cl)c4[C@@H](O)[C@H]3C[C@@H]12 [Demeclocycline], the “Fold differences, 6 day-assays” value [1] is reported as 1.06, the IC50 [1, 12] is reported as over 18 µM and the IC50 [1, 13] is reported as 0.41 ± 0.165 µM.
Work on CO[C@H]1C[C@H](O[C@H]2[C@H](C)[C@@H](O[C@@H]3O[C@H](C)C[C@H](N(C)C)[C@H]3O)[C@@H](C)C[C@@]3(CO3)C(=O)[C@H](C)[C@@H](O)[C@@H](C)[C@@H](C)OC(=O)[C@@H]2C)O[C@@H](C)[C@@H]1O [Oleandomycin] yielded an IC50 [1, 12] of 8.19 ± 3.85 µM and an IC50 [1, 13] of over 18 µM.
For C=C1c2cccc(O)c2C(=O)C2=C(O)[C@]3(O)C(=O)C(C(N)=O)=C(O)[C@@H](N(C)C)[C@@H]3[C@@H](O)[C@H]12 [Methacycline], the “Fold differences, 6 day-assays” value [1] was 1.2, the IC50 [1, 12] was over 18 µM and the IC50 [1, 13] was 3.72 µM.
In the case of CCN(CC)CCCC(C)Nc1ccnc2cc(Cl)ccc12 (centres unmarked) [Chloroquine, Chloroquine diphosphate], the “Fold differences, 3 day-assays” value [1] is reported as 0.57, the “Fold differences, 6 day-assays” value [1] is reported as 0.61 and the IC50 ([1]; Plasmodium falciparum, 3D7, 72 h, read-out: IC50, 3D7 (Table 4)) is reported as 0.0084 ± 0.0049 µM. For the same molecule, the IC50 [1, 9] was 0.0084 ± 0.0049 µM, the IC50 [1, 10] was 0.0104 ± 0.0048 µM and the IC50 ([4]; Plasmodium falciparum, DD2, 72 h) was 0.302 ± 0.119 µM. The “increase of IC50 by supplementation of KCl” value [5] was “no difference was observed”, the IC50 ([5]; Plasmodium falciparum, 3D7, 72 h, read-out: IC50 (in nM) control) was 12 ± 0.8 nM and the IC50 ([5]; Plasmodium falciparum, 3D7, 72 h, read-out: IC50, KCl supplemented) was 11.6 ± 1.4 nM. It also gave an IC50 ([5]; Plasmodium falciparum, 3D7, 72 h, read-out: IC50, MgCl2 supplemented) of 2.2 nM, an IC50 ([7]; Plasmodium falciparum, 7G8, 72 h) of 0.304 ± 0.0182 µM and an IC50 (HepG2 cells; Homo sapiens, HepG2, 24 h) of 153 µM. The “SI 3D7” value (HepG2 cells) was 18,214, the “SI A1-H.1” value (HepG2 cells) was 10,551 and the IC50 ([8]; Plasmodium falciparum, K1, 72 h) was 0.401 ± 0.0283 µM.
In the case of CO[C@@H]1[C@@H](O[C@@H]2O[C@H](C)[C@@H](O[C@H]3C[C@@](C)(O)[C@@H](OC(=O)CC(C)C)[C@H](C)O3)[C@H](N(C)C)[C@H]2O)[C@@H](CC=O)C[C@@H](C)[C@@H](O)/C=C/C=C/C[C@@H](C)OC(=O)C[C@H]1OC(C)=O [Josamycin], the “Fold differences, 6 day-assays” value [1] is reported as 2.3, the IC50 [1, 12] is reported as over 18 µM and the IC50 [1, 13] is reported as 0.388 ± 0.185 µM.
With CN(C)c1ccc(O)c2c1C[C@H]1C[C@H]3[C@H](N(C)C)C(O)=C(C(N)=O)C(=O)[C@@]3(O)C(O)=C1C2=O [Minocycline, Minocycline hydrochloride] the “Fold differences, 3 day-assays” value [1] was 3, the “Fold differences, 6 day-assays” value [1] was 0.56 and the IC50 [1, 12] was 9.39 ± 4.35 µM. The IC50 [1, 13] was 0.0835 ± 0.025 µM.
In the case of CN(C)[C@@H]1C(O)=C(C(=O)NCNCCCC[C@H](N)C(=O)O)C(=O)[C@@]2(O)C(O)=C3C(=O)c4c(O)cccc4[C@@](C)(O)[C@H]3C[C@@H]12 [Lymecycline], the “Fold differences, 6 day-assays” value [1] is reported as 1, the IC50 [1, 9] is reported as over 18 µM and the IC50 [1, 10] is reported as 1.12 ± 0.247 µM.
With CON(C)Cc1ccc(O)c2c1C[C@H]1C[C@H]3[C@H](N(C)C)C(O)=C(C(N)=O)C(=O)[C@@]3(O)C(O)=C1C2=O [Sarecycline, Sarecycline hydrochloride] the “Fold differences, 3 day-assays” value [1] was 7.1, the “Fold differences, 6 day-assays” value [1] was 0.26 and the IC50 [1, 9] was 13.4 ± 1.05 µM. It also gave an IC50 [1, 10] of 0.244 ± 0.136 µM.
In the case of CN(C)c1cc(CNCC(C)(C)C)c(O)c2c1C[C@H]1C[C@H]3[C@H](N(C)C)C(O)=C(C(N)=O)C(=O)[C@@]3(O)C(O)=C1C2=O [Omadacycline], the “Fold differences, 3 day-assays” value [1] is reported as 7.3, the “Fold differences, 6 day-assays” value [1] is reported as 0.86 and the IC50 [1, 12] is reported as 8.44 ± 0.618 µM. For the same molecule, the IC50 [1, 13] was 0.248 ± 0.109 µM.
With CN(C)[C@@H]1C(O)=C(C(N)=O)C(=O)[C@@]2(O)C(O)=C3C(=O)c4c(O)ccc(Cl)c4[C@@](C)(O)[C@H]3C[C@@H]12 [Chlortetracycline] the IC50 [1, 12] was over 18 µM and the IC50 [1, 13] was over 18 µM.
